In this assay the test system is Puccinia triticina; Synonym: Puccinia recondita f sp. tritici. In words: Wheat brown rust (PUCCRT) disease control on wheat seedlings. The format is in vivo. The note with it: for pest or weed control at 100 ppm: High Volume activity at 100 ppm; for pest or weed control at 121.5 g/ha: Low Volume activity at 121.5 g/H. As to the method:
All fungicides were evaluated using the aforementioned method for their activity vs. all target diseases, unless stated otherwise. Wheat leaf blotch and brown rust activity were also evaluated using track spray applications, in which case the fungicides were formulated as EC formulations, containing 0.1% Trycol 5941 in the spray solutions. Wheat plants (variety Yuma) were grown from seed in a greenhouse in 50% mineral soil/50% soil-less Metro mix until the first leaf was fully emerged, with 7-10 seedlings per pot. These plants were inoculated with an aqueous spore suspension of Puccinia triticina either prior to or after fungicide treatments. […] The plants were then transferred to a greenhouse set at 24° C. for disease to develop. Fungicide formulation, application and disease assessment followed the procedures as described in the Example A.

[1] abbreviates: 24 h, 1 Day Protectant, read-out: PUCCRT 1DP % Control rating.
Where [2] appears, read: 72 h, 3 Day Curative, read-out: PUCCRT 3DC % Control rating.

Where two headings read alike, the source gives them in different places.

For the compound `COc1ccnc(C(=O)N[C@H]2CCC[C@H](CCC(C)C)[C@@H](Cc3ccccc3)[C@H](C)OC2=O)c1O` [Compound 73], the pest or weed control at 100 ppm was above 70% under setting [1] and below 70% under setting [2].

With `COc1ccnc(C(=O)N[C@H]2CCC[C@H](Cc3ccc(C(F)(F)F)cc3)[C@@H](CC(C)C)[C@H](C)OC2=O)c1OC(C)=O` [Compound 22], the pest or weed control at 121.5 g/ha was above 70% under setting [1] and below 70% under setting [2].

In the case of `CCCC[C@@H]1[C@@H](Cc2ccc(C(F)(F)F)cc2)CCC[C@H](NC(=O)c2nccc(OC)c2O)C(=O)O[C@H]1C` [Compound 72], the pest or weed control at 100 ppm by setting is: under setting [1], above 70%; under setting [2], below 70%.

Take `COc1ccnc(C(=O)N[C@H]2CCC[C@H](Cc3ccccc3)[C@@H](Cc3ccc(OC(F)(F)F)cc3)[C@H](C)OC2=O)c1O` [Compound 97]: the pest or weed control at 100 ppm is above 70% under setting [1] and below 70% under setting [2].

For the compound `COc1ccnc(C(=O)N[C@H]2CCC[C@H](Cc3ccc(Cl)cc3)[C@@H](C3CCCC3)[C@H](C)OC2=O)c1O` [Compound 84], the pest or weed control at 100 ppm is, setting by setting: under setting [1], above 70%; under setting [2], below 70%.

Consider `COc1ccnc(C(=O)N[C@H]2CCC[C@H](Cc3ccc(C(F)(F)F)cc3)[C@@H](Cc3ccc(OC(F)(F)F)cc3)[C@H](C)OC2=O)c1O` [Compound 96], for which the pest or weed control at 100 ppm under setting [1] is below 70% and the pest or weed control at 100 ppm under setting [2] was below 70%.

For `COc1ccnc(C(=O)N[C@H]2CCC[C@H](Cc3ccccc3)[C@@H](Cc3ccccc3)[C@H](C)OC2=O)c1OCOC(=O)C(C)C` [Compound 7, ((2-(((3S,7R,8R,9S)-7,8-dibenzyl-9-methyl-2-oxooxonan-3-yl)carbamoyl)-4-methoxypyridin-3-yl)oxy)methyl isobutyrate], the pest or weed control at 121.5 g/ha is, setting by setting: under setting [1], above 70%; under setting [2], above 70%.

With `COc1ccnc(C(=O)N[C@H]2CCC[C@H](CCCc3ccccc3)[C@@H](Cc3ccccc3)[C@H](C)OC2=O)c1OCOC(C)=O` [Compound 70], the pest or weed control at 121.5 g/ha is above 70% under setting [1] and below 70% under setting [2].

As for `COc1ccnc(C(=O)N[C@H]2CCC[C@H](Cc3ccc(C(F)(F)F)cc3)[C@@H](Cc3ccccc3)[C@H](C)OC2=O)c1OCOC(=O)C(C)C` [Compound 27], the pest or weed control at 121.5 g/ha under setting [1] is above 70% and the pest or weed control at 121.5 g/ha under setting [2] was below 70%.

With `COc1ccnc(C(=O)N[C@H]2CCC[C@H](Cc3ccccc3)[C@@H](CCc3ccccc3)[C@H](C)OC2=O)c1OC(C)=O` [Compound 18], the pest or weed control at 121.5 g/ha was below 70% under setting [1] and below 70% under setting [2].

`COc1ccnc(C(=O)N[C@H]2CCC[C@H](CCCc3ccccc3)[C@@H](CCc3ccccc3)[C@H](C)OC2=O)c1O` [Compound 85]: the pest or weed control at 100 ppm is above 70% under setting [1] and below 70% under setting [2].

With `COc1ccnc(C(=O)N[C@H]2CCC[C@H](Cc3ccc(Cl)cc3)[C@@H](CC(C)C)[C@H](C)OC2=O)c1OCOC(C)=O` [Compound 12], the pest or weed control at 121.5 g/ha is above 70% under setting [1] and below 70% under setting [2].

Regarding `COc1ccnc(C(=O)N[C@H]2CCC[C@H](CCCc3ccccc3)[C@@H](Cc3ccc(OC(F)(F)F)cc3)[C@H](C)OC2=O)c1OC(=O)C(C)C` [Compound 58, 4-methoxy-2-(((3S,7S,8R,9S)-9-methyl-2-oxo-7-(3-phenylpropyl)-8-(4-(trifluoromethoxy)benzyl)oxonan-3-yl)carbamoyl)pyridin-3-yl isobutyrate], the pest or weed control at 121.5 g/ha runs as follows: under setting [1], below 70%; under setting [2], below 70%.

As for `COc1ccnc(C(=O)N[C@H]2CCC[C@H](CCCc3ccccc3)[C@@H](CC(C)C)[C@H](C)OC2=O)c1OC(C)=O` [Compound 56], the pest or weed control at 121.5 g/ha runs as follows: under setting [1], above 70%; under setting [2], below 70%.

Turning to `COc1ccnc(C(=O)N[C@H]2CCC[C@H](Cc3ccc(Cl)cc3)[C@@H](Cc3ccccc3)[C@H](C)OC2=O)c1OCOC(C)=O` [Compound 19], the pest or weed control at 121.5 g/ha is above 70% under setting [1] and below 70% under setting [2].

With `COc1ccnc(C(=O)N[C@H]2CCC[C@H](Cc3ccccc3)[C@@H](CCC(C)C)[C@H](C)OC2=O)c1OCOC(C)=O` [Compound 47], the pest or weed control at 121.5 g/ha under setting [1] was above 70% and the pest or weed control at 121.5 g/ha under setting [2] was below 70%.

Consider `COc1ccnc(C(=O)N[C@H]2CCC[C@H](CC3CC3)[C@@H](Cc3ccccc3)[C@H](C)OC2=O)c1OC(C)=O` [Compound 60], for which the pest or weed control at 121.5 g/ha reads like this: under setting [1], above 70%; under setting [2], above 70%.

As for `COc1ccnc(C(=O)N[C@H]2CCC[C@H](CCC(C)C)[C@@H](C3CCCC3)[C@H](C)OC2=O)c1O` [Compound 87], the pest or weed control at 100 ppm is above 70% under setting [1] and below 70% under setting [2].

On to `COc1ccnc(C(=O)N[C@H]2CCC[C@H](CCCc3ccccc3)[C@@H](Cc3ccccc3)[C@H](C)OC2=O)c1O` [Compound 98], for which the pest or weed control at 100 ppm under setting [1] is above 70% and the pest or weed control at 100 ppm under setting [2] is below 70%.

As to `COc1ccnc(C(=O)N[C@H]2CCC[C@H](Cc3ccccc3)[C@@H](Cc3ccccc3)[C@H](C)OC2=O)c1OC(C)=O` [Compound 5], the pest or weed control at 121.5 g/ha under setting [1] is above 70% and the pest or weed control at 121.5 g/ha under setting [2] is above 70%.

`COc1ccnc(C(=O)N[C@H]2CCC[C@H](CCC(C)C)[C@@H](C3CCCC3)[C@H](C)OC2=O)c1OC(C)=O` [Compound 43]: the pest or weed control at 121.5 g/ha is, setting by setting: under setting [1], above 70%; under setting [2], below 70%.

Regarding `COc1ccnc(C(=O)N[C@H]2CCC[C@H](Cc3ccccc3)[C@@H](Cc3ccc(OC(F)(F)F)cc3)[C@H](C)OC2=O)c1OCOC(C)=O` [Compound 68], the pest or weed control at 121.5 g/ha by setting is: under setting [1], below 70%; under setting [2], below 70%.

Turning to `CCC[C@H]1CCC[C@H](NC(=O)c2nccc(OC)c2OCOC(C)=O)C(=O)O[C@@H](C)[C@@H]1c1ccccc1` [Compound 54], the pest or weed control at 121.5 g/ha is, setting by setting: under setting [1], above 70%; under setting [2], above 70%.

Regarding `COc1ccnc(C(=O)N[C@H]2CCC[C@H](CC3CC3)[C@@H](Cc3ccccc3)[C@H](C)OC2=O)c1OCOC(C)=O` [Compound 61], the pest or weed control at 121.5 g/ha is, setting by setting: under setting [1], above 70%; under setting [2], above 70%.

As for `COc1ccnc(C(=O)N[C@H]2CCC[C@H](CCC(C)C)[C@@H](C3CCCC3)[C@H](C)OC2=O)c1OCOC(=O)C(C)C` [Compound 44], the pest or weed control at 121.5 g/ha by setting is: under setting [1], above 70%; under setting [2], below 70%.

For the compound `CCC[C@H]1CCC[C@H](NC(=O)c2nccc(OC)c2OCOC(C)=O)C(=O)O[C@@H](C)[C@@H]1Cc1ccc(F)cc1` [Compound 48], the pest or weed control at 121.5 g/ha reads like this: under setting [1], above 70%; under setting [2], above 70%.

With `CCCC[C@@H]1[C@@H](Cc2ccccc2)CCC[C@H](NC(=O)c2nccc(OC)c2O)C(=O)O[C@H]1C` [Compound 71, N-((3S,7R,8R,9S)-7-benzyl-8-butyl-9-methyl-2-oxooxonan-3-yl)-3-hydroxy-4-methoxypicolinamide], the pest or weed control at 100 ppm reads like this: under setting [1], above 70%; under setting [2], above 70%.

With `CCOCC(=O)OCOc1c(OC)ccnc1C(=O)N[C@H]1CCC[C@H](Cc2ccccc2)[C@@H](Cc2ccccc2)[C@H](C)OC1=O` [Compound 8, ((2-(((3S,7R,8R,9S)-7,8-dibenzyl-9-methyl-2-oxooxonan-3-yl)carbamoyl)-4-methoxypyridin-3-yl)oxy)methyl 2-ethoxyacetate], the pest or weed control at 121.5 g/ha by setting is: under setting [1], above 70%; under setting [2], below 70%.

In the case of `COc1ccnc(C(=O)N[C@H]2CCC[C@H](Cc3ccccc3)[C@@H](C3CCCC3)[C@H](C)OC2=O)c1O` [Compound 75], the pest or weed control at 100 ppm is above 70% under setting [1] and below 70% under setting [2].

In the case of `COc1ccnc(C(=O)N[C@H]2CCC[C@H](Cc3ccccc3)[C@@H](c3ccccc3)[C@H](C)OC2=O)c1O` [Compound 90], the pest or weed control at 100 ppm is, setting by setting: under setting [1], above 70%; under setting [2], above 70%.

Regarding `COc1ccnc(C(=O)N[C@H]2CCC[C@H](Cc3ccc(Cl)cc3)[C@@H](Cc3ccccc3)[C@H](C)OC2=O)c1OC(C)=O` [Compound 21], the pest or weed control at 121.5 g/ha is, setting by setting: under setting [1], above 70%; under setting [2], below 70%.

Take `COc1ccnc(C(=O)N[C@H]2CCC[C@H](Cc3ccccc3)[C@@H](CCC(C)C)[C@H](C)OC2=O)c1OC(C)=O` [Compound 45]: the pest or weed control at 121.5 g/ha is, setting by setting: under setting [1], above 70%; under setting [2], below 70%.

For `COc1ccnc(C(=O)N[C@H]2CCC[C@H](Cc3ccc(Cl)cc3)[C@@H](Cc3ccccc3)[C@H](C)OC2=O)c1O` [Compound 79], the pest or weed control at 100 ppm is above 70% under setting [1] and below 70% under setting [2].

As for `COc1ccnc(C(=O)N[C@H]2CCC[C@H](Cc3ccccc3)[C@@H](CC(C)C)[C@H](C)OC2=O)c1OCOC(C)=O` [Compound 14], the pest or weed control at 121.5 g/ha reads like this: under setting [1], above 70%; under setting [2], below 70%.

On to `COc1ccnc(C(=O)N[C@H]2CCC[C@H](Cc3ccc(C(F)(F)F)cc3)[C@@H](Cc3ccccc3)[C@H](C)OC2=O)c1O` [Compound 81], for which the pest or weed control at 100 ppm under setting [1] was above 70% and the pest or weed control at 100 ppm under setting [2] is below 70%.

Take `COc1ccnc(C(=O)N[C@H]2CCC[C@H](Cc3ccccc3)[C@@H](CCc3ccccc3)[C@H](C)OC2=O)c1O` [Compound 78]: the pest or weed control at 100 ppm was above 70% under setting [1] and below 70% under setting [2].

The record behind these values is patent US9700047B2, “Macrocyclic picolinamides as fungicides” (Dow AgroSciences LLC, priority 2014, dated 2017).
